Reference: patent publication US20240335569A1, “FIBROBLAST ACTIVATION PROTEIN INHIBITORS AND USE THEREOF” (3 B PHARMACEUTICALS GMBH, priority 2021, published 2024)

Columns and labels:
recombinant human PREP = recombinant human PREP (Homo sapiens (Human), UniProt P48147); assay: PREP protease activity assay; assay type: biochemical
Experimental: (§1) The PREP activity assay was performed using the FACS buffer (PBS including 1% FBS, Sigma-Aldrich, Cat #D8537). […] The DPP4 activity assay was performed in DPP assay buffer (25 mM Tris, pH 8.0). […] Four parameter logistic (4PL) curve fitting and pIC50 calculations were performed using ActivityBase software.

Recombinant human DPP4 = Recombinant human DPP4 (Homo sapiens (Human), UniProt P27487); assay: DPP4 protease activity assay; assay type: biochemical
Sequence of Recombinant human DPP4 (P27487 whole entry): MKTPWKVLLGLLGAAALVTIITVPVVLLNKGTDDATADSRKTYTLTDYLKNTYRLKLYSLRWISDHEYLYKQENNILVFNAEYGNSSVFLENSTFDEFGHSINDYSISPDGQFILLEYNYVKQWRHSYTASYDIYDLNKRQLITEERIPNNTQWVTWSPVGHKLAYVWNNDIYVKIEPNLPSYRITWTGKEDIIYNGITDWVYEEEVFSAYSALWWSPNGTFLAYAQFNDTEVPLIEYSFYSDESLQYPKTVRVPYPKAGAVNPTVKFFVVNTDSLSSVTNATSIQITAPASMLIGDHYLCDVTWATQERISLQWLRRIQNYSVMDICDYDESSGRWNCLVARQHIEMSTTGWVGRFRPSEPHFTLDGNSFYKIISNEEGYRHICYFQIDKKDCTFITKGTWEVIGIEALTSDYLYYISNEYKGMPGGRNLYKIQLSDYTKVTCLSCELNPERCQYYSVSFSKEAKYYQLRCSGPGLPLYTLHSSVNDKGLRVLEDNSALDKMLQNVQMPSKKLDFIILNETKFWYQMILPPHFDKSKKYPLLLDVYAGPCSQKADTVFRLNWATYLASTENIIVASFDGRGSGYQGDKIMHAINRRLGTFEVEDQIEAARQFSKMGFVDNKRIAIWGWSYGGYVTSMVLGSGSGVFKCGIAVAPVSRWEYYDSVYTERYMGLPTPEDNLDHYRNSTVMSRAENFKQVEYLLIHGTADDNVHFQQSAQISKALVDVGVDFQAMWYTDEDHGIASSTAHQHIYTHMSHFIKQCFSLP
Experimental: as §1

Human recombinant FAP [1] = target: T1, Human recombinant FAP (Homo sapiens (Human), UniProt Q12884); assay: FAP protease activity assay (human), FRET-based; assay type: biochemical; conditions: recombinant human FAP, FRET protease activity
Experimental: (§2) In order to determine the inhibitory activity a FRET-based FAP protease activity assay was established.
Four parameter logistic (4PL) curve fitting and pIC50 calculations were performed using ActivityBase software (IDBS).
Target sequence in this assay (Q12884 26-760): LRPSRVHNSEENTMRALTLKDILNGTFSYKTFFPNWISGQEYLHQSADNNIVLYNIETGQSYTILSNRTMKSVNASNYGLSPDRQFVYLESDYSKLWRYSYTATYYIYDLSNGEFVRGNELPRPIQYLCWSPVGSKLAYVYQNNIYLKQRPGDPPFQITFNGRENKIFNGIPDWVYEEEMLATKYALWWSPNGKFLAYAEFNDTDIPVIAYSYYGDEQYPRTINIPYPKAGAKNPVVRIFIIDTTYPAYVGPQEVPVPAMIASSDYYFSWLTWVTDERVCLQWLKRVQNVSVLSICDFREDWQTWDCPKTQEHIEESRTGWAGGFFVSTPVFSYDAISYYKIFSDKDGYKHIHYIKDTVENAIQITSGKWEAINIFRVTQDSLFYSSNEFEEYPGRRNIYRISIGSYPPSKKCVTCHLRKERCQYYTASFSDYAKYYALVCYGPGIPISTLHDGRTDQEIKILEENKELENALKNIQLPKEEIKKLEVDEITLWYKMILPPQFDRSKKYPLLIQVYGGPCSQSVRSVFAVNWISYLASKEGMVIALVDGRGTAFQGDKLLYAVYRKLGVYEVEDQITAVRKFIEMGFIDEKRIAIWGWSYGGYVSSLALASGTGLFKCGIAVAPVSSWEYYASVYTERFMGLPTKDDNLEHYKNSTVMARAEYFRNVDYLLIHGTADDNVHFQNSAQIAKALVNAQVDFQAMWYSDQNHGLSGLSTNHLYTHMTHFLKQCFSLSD

[2] = target: FAP-expressing human WI-38 fibroblasts (Homo sapiens (Human), UniProt Q12884); assay: FACS binding assay (competitive, Cy5-labeled 3BP-2935); conditions: FAP-expressing WI-38 fibroblasts
Sequence of FAP-expressing human WI-38 fibroblasts (Q12884 whole entry): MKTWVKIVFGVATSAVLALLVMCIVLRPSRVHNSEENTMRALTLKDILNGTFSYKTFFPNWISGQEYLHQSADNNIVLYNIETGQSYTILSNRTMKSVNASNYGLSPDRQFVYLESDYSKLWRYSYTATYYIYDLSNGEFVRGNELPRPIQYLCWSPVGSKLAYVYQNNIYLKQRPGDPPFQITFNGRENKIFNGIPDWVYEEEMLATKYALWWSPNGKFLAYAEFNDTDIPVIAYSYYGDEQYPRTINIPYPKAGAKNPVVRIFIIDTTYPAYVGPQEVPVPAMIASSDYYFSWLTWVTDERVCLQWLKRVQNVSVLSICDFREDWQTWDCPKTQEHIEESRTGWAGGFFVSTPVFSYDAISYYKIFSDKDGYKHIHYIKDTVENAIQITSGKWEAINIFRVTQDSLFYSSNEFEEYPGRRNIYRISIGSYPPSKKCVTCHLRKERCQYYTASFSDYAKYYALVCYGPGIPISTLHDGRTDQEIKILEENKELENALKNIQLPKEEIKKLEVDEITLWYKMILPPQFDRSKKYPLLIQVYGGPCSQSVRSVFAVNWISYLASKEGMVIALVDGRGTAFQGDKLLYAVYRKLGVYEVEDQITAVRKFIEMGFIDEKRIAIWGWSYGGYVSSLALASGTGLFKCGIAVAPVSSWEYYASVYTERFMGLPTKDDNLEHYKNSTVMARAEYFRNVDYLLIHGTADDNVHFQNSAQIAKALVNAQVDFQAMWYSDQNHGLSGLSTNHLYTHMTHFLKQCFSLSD
Experimental: In order to determine binding of compounds according to the present invention to FAP-expressing cells, a competitive FACS binding assay was established. […] Cells were diluted in FACS buffer to a final concentration of 100.000 cells per ml and 200 μl of the cell suspension are transferred to a u-shaped non-binding 96-well plate (Greiner). […] Cell were washed twice with FACS buffer (see above) and resuspended in 200 μl FACS buffer. Cells were analyzed in an Attune NxT flow cytometer (Thermo Fisher Scientific). Median fluorescence intensities (Cy5 channel) were calculated by Attune NxT software and plotted against test compound concentrations. Four parameter logistic (4PL) curve fitting and pIC50 calculations were performed using ActivityBase software.

Recombinant mouse FAP = Recombinant mouse FAP (Mus musculus (Mouse), UniProt P97321); assay: FAP protease activity assay (mouse), FRET-based; assay type: biochemical; conditions: recombinant mouse FAP, FRET protease activity
Sequence of Recombinant mouse FAP (P97321 whole entry): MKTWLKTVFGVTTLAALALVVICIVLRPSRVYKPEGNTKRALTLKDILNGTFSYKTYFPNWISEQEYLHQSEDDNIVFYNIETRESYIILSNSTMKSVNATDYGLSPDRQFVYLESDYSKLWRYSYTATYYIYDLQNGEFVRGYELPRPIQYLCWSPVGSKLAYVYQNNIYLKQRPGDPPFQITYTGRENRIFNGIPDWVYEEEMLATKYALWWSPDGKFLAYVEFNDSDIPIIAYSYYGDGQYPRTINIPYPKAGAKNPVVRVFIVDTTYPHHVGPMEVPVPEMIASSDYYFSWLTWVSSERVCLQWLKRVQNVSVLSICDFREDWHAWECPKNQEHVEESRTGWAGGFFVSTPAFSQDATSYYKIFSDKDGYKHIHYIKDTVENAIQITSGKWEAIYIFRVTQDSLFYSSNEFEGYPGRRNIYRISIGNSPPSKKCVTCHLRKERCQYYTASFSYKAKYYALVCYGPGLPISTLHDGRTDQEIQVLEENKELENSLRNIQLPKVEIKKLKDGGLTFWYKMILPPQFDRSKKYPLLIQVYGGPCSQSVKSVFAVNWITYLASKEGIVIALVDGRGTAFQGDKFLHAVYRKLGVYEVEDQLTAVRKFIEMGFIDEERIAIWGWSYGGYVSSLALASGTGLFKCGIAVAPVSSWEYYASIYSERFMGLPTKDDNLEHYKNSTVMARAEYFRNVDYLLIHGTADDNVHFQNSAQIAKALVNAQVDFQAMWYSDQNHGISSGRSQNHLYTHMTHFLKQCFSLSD
Experimental: as §2
Four parameter logistic (4PL) curve fitting and pIC50 calculations were performed using ActivityBase software.

Human recombinant FAP [3] = target: T1, Human recombinant FAP; assay: Surface plasmon resonance assay (Biacore T200, SCK); assay type: binding; conditions: for pKD (Biacore): SPR; for HL [min] (Biacore): SPR dissociation half-life
Experimental: Surface plasmon resonance studies were performed using a Biacore™ T200 SPR system (Cytiva, formerly GE Healthcare). Briefly, polarized light is directed towards a gold-labeled sensor surface, and minimum intensity reflected light is detected. The angle of reflected light changes as molecules bind and dissociate. […] Test compounds are contacted with the loaded surface, and a real-time interaction profile with the FAP ligand is recorded in a sensorgram. In real-time, the association and dissociation of a binding interaction is measured, enabling calculation of association and dissociation rate constants and the corresponding affinity constants. Importantly, a background response is generated due to the difference in the refractive indices of the running and sample buffers, as well as unspecific binding of the test compounds to the flow cell surface. This background is measured and subtracted by running the sample on a control flow cell coated with the same density of capture antibody in the absence of immobilized FAP. Furthermore, baseline drift correction of the binding data is performed, which is caused by slow dissociation of the captured FAP from the immobilized antibody. This drift is measured by injecting running buffer through a flow cell with the antibody and FAP immobilized to the sensor surface.
Biacore™ CM5 sensor chips were used. […] A 150 μL aliquot was transferred into plastic vials and placed into the sample rack of the Biacore™ T200 instrument. Amine Coupling Kit Reagent solutions were transferred into plastic vials and placed into the sample rack: 90 μL of 0.4 M 1-ethyl-3-(3-dimethylaminopropyl) carbodiimide (EDC), and 90 μL of 0.1 M N-hydroxysuccinimide (NHS). A 130 μL aliquot of 1 M ethanolamine-HCl, pH 8.5, was transferred into plastic vials and placed into the sample rack. The Biacore™ liquid system was set-up as follows: Separate bottles containing distilled water (1 L), Running Buffer (500 mL), as well as an empty bottle for waste were placed onto the buffer tray. A preinstalled program for immobilization was used, with an immobilization level of 7000 RU. Immobilization was performed at 25° C. The immobilization procedure of anti-FAP antibodies was performed, as described in the Table 4.
Human recombinant FAP was diluted in Running Buffer to a final concentration of 20 μg/mL. A 100 μL aliquot of human FAP-Working-Solution was transferred into plastic vials and placed into a sample rack. A 0.5 mM Compound-Stock-Solution was prepared by dissolving each compound in DMSO. For each test compound, Compound-Stock-Solutions were diluted in Running Buffer (HBST) at 500 nM and further diluted with HBST-DMSO Buffer (0.1% DMSO). SPR binding analyses for binary complexes were performed in SCK mode at 25° C. Following three SCK measurements, a baseline drift was assessed by injecting running buffer through a flow cell, with the antibody and FAP immobilized to the sensor surface.
For each test compound, SPR raw data in the form of resonance units (RU) were plotted as sensorgrams using the Biacore™ T200 control software. The signal from the blank sensorgram was subtracted from that of the test compound sensorgram (blank corrected). The blank corrected sensorgram was corrected for baseline drift by subtracting the sensorgram of a SCK run without the test compound (running buffer only). The association rate (kon), dissociation rate (koff), dissociation constant (KD), and t1/2 were calculated from Blank-normalized SPR data using the 1:1 Langmuir binding model from the Biacore™ T200 evaluation software. Raw data and fit results were imported as text files in IDBS. The pKD value (negative decadic logarithm of dissociation constant) was calculated in the IDBS excel template.
Target sequence in this assay (Q12884 whole entry): as the sequence (Q12884 whole entry) above

Sequence of recombinant human PREP (P48147 whole entry): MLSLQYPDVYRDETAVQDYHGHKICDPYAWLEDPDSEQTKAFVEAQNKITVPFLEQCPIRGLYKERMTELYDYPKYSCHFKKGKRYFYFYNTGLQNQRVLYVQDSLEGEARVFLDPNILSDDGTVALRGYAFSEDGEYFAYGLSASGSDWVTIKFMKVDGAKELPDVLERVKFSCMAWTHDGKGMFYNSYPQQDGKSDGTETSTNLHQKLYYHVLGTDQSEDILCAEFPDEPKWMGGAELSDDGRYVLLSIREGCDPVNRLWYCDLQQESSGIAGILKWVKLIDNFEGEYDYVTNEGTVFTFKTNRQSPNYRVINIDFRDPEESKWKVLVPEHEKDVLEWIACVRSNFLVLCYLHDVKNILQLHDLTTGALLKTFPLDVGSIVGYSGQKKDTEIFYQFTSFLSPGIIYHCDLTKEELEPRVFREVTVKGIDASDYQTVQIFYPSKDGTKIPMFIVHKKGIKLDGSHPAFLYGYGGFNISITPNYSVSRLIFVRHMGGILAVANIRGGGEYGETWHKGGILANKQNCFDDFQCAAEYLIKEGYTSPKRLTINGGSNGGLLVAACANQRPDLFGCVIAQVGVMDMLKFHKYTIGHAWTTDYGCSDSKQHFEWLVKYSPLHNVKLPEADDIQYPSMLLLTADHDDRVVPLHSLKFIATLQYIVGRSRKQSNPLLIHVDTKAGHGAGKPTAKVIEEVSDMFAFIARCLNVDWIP

SMILES | pIC50 (PREP) (recombinant human PREP) | pIC50 (DPP4) (Recombinant human DPP4) | pIC50 (Activity) (Human recombinant FAP [1]) | pIC50 (FACS) [2] | pIC50 (mouseFAP) (Recombinant mouse FAP) | pKD (Biacore) (Human recombinant FAP [3]) | HL [min] (Biacore) (Human recombinant FAP [3])
CC(C)(C)c1nnc(C(=O)[C@@H]2CCCN2C(=O)CNC(=O)c2ccnc3ccccc23)o1 [Compound 3BP-3632] | 8.9 | <6 | 8.4 | 7.8 | 8.4 | 8.6 | 0.4
CS(=O)(=O)c1ccc(-c2ccc3nccc(C(=O)NCC(=O)N4CCC[C@H]4C#N)c3c2)cc1 [Compound 3BP-3235] | <6 | <6 | 9.2 | 8.4 |  | 9.8 | 12
N#C[C@@H]1CC(F)(F)CN1C(=O)CNC(=O)c1ccnc2c1=CC(OCCCN1CCN(C(=O)CN3CCN4CCN5CCN(CC3)CC(=O)[O][In]([O]C(=O)C5)[O]C(=O)C4)CC1)CC=2 (stereo partly drawn) [Compound 3BP-3468] | <6 | <6 | 9.2 | 8.7 | 9 | 10.5 | 69
O=C(NCC(=O)N1CCC[C@H]1C(=O)c1nccs1)c1ccnc2ccccc12 [Compound 3BP-3206] | 7.6 | <6 | 7.3 | 7 |  | 7.9 | 0.3
CS(=O)(=O)c1ccc(-c2ccc3nccc(C(=O)NCC(=O)N4CC(F)(F)C[C@H]4C#N)c3c2)cc1 [Compound 3BP-3233] | <6 | <6 | 9.2 | 9 | 9.1 | >10.5 | 130
CS(=O)(=O)c1cccc(-c2ccc3c(C(=O)NCC(=O)N4CCC[C@H]4C#N)ccnc3c2)c1 [Compound 3BP-3133] | <6 | <6 | 8.7 | 8.2 |  | 9.3 | 5.7
CS(=O)(=O)c1cccc(-c2ccc3nccc(C(=O)NCC(=O)N4CCC[C@H]4C#N)c3c2)c1 [Compound 3BP-3132] | <6 | <6 | 9 | 8.4 |  | 9.4 | 2.5
